Reference: patent publication US9187429B2, “Phenyl-tetrahydroisoquinoline derivatives” (Hoffmann-La Roche Inc., priority 2012, dated 2015)

What was measured:
CYP11B2 = CYP11B2 (Homo sapiens (Human), UniProt P19099); assay: G-402 cellular enzyme assay, human CYP11B2 (aldosterone release); assay type: cell-based; conditions: G-402 cells expressing human CYP11B2, 1 μM Deoxycorticosterone
Summary of the method: (§1)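 G-402 cells stably transfected with human CYP11B2 or CYP11B1, dosed with inhibitor and 1 μM deoxycorticosterone (CYP11B2) or 1 μM deoxycortisol (CYP11B1). Aldosterone or cortisol in supernatant quantified by HTRF; EC50 from 4-parameter MMF fit of steroid level versus inhibitor concentration.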

human CYP11B1 = human CYP11B1 (Homo sapiens (Human), UniProt P15538); assay: G-402 cellular enzyme assay, human CYP11B1 (cortisol release); assay type: cell-based; conditions: G-402 cells expressing human CYP11B1, 1 μM Deoxycortisol
Summary of the method: as §1

Chain of human CYP11B1 (P15538 25-503): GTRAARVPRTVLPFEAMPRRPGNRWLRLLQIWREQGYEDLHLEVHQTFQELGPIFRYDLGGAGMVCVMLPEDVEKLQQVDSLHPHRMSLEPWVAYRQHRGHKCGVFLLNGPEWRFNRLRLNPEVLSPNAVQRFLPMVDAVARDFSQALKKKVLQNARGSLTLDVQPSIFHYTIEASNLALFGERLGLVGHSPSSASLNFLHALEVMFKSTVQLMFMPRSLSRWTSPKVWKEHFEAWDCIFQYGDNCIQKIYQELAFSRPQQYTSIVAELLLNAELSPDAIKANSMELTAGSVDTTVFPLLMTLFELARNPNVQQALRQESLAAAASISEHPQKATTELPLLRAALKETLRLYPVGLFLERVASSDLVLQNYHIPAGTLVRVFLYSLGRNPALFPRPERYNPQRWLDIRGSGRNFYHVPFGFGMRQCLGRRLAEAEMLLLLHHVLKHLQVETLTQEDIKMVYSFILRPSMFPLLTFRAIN
Chain of CYP11B2 (P19099 25-503): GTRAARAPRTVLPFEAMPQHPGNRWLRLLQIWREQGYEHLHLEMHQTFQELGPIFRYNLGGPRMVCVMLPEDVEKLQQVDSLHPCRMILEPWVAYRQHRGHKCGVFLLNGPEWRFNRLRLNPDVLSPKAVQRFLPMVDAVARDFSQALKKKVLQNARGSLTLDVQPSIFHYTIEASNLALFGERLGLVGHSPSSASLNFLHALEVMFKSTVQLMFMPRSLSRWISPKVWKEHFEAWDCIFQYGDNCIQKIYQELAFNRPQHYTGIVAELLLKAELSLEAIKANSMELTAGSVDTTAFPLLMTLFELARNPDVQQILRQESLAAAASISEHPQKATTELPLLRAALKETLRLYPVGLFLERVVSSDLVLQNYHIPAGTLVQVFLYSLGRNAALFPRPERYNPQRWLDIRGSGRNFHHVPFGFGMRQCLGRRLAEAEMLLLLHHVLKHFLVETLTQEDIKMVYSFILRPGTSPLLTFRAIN

Row | SMILES | EC50 (CYP11B2) | EC50 (human CYP11B1)
1 | CCC(=O)NC1CCCc2c(-c3ccc(F)c(C)c3)cncc21 (single isomer, unassigned; (+)) [Example 29, (+)-(R or S)—N-(4-(4-fluoro-3-methylphenyl)-5,6,7,8-tetrahydroisoquinolin-8-yl)propionamide] | 4 nM | 241 nM
2 | N#Cc1ccc(-c2cncc3c2CCCC3N)cc1 (racemic) [Example 1, (rac)-4-(8-Amino-5,6,7,8-tetrahydroisoquinolin-4-yl)benzonitrile] | 42 nM | 173 nM
3 | CCC(=O)NC1CCCc2c(-c3ccc(Cl)c(Cl)c3)cncc21 (racemic) [Example 45, (rac)-N-(4-(3,4-Dichlorophenyl)-5,6,7,8-tetrahydroisoquinolin-8-yl)propionamide] | 3 nM | 177 nM
4 | CCC(=O)NC1CCc2c(-c3ccc(C#N)cc3)cncc21 (racemic) [Example 17, (rac)-N-(4-(4-Cyanophenyl)-6,7-dihydro-5H-cyclopenta[c]pyridin-7-yl)propionamide] | 22 nM | 511 nM
5 | CCC(=O)NC1CCCc2c(-c3ccc(Cl)c(F)c3)cncc21 (racemic) [Example 36, (rac)-N-(4-(4-Chloro-3-fluorophenyl)-5,6,7,8-tetrahydroisoquinolin-8-yl)propionamide] | 14 nM | 1010 nM
6 | CCC(=O)NC1CCCc2c(-c3ccc(C(F)(F)F)cc3F)cncc21 (racemic) [Example 33, (rac)-N-(4-(2-Fluoro-4-(trifluoromethyl)phenyl)-5,6,7,8-tetrahydroisoquinolin-8-yl)propionamide] | 159 nM | 14700 nM
7 | CCC(=O)NC1CCCc2c(-c3ccc(Cl)cc3)cncc21 (racemic) [Example 24, (rac)-N-(4-(4-Chlorophenyl)-5,6,7,8-tetrahydroisoquinolin-8-yl)propionamide] | 31 nM | 1420 nM

Further lines, results first:

Row | EC50 (CYP11B2) | EC50 (human CYP11B1) | SMILES
8 | 373 nM | 3870 nM | CCCS(=O)(=O)NC1CCc2c(-c3ccc(C(F)(F)F)cc3)cncc21 (racemic) [Example 96, (rac)-Propane-1-sulfonic acid [4-(4-trifluoromethyl-phenyl)-6,7-dihydro-5H-[2]pyrindin-7-yl]-amide]
9 | 1680 nM | 14700 nM | CCC(=O)NC1CCc2c(-c3ccc(C(F)(F)F)cc3F)cncc21 (single isomer, unassigned; (-)) [Example 62, (−)-(S or R)—N-(4-(2-Fluoro-4-(trifluoromethyl)phenyl)-6,7-dihydro-5H-cyclopenta[c]pyridin-7-yl)propionamide]
10 | 301 nM | 389 nM | O=S(=O)(NC1CCc2c(-c3ccc(C(F)(F)F)c(F)c3)cncc21)C1CC1 (racemic) [Example 91, (rac)-Cyclopropanesulfonic acid [4-(3-fluoro-4-trifluoromethyl-phenyl)-6,7-dihydro-5H-[2]pyrindin-7-yl]-amide]
11 | 79 nM | 4040 nM | CCC(=O)NC1CCc2c(-c3ccc(C(F)(F)F)cc3)cncc21 (racemic) [Example 49, (rac)-N-(4-(4-(Trifluoromethyl)phenyl)-6,7-dihydro-5H-cyclopenta[c]pyridin-7-yl)propionamide]
12 | 79 nM | 2100 nM | C[C@@H](O)C(=O)NC1CCCc2c(-c3ccc(C(F)(F)F)cc3)cncc21 (single isomer, unassigned; (-)) [Example 48, (−)-(R)-2-Hydroxy-N—[(S or R)-4-(4-trifluoromethyl-phenyl)-5,6,7,8-tetrahydro-isoquinolin-8-yl]-propionamide]
13 | 25 nM | 2260 nM | CCC(=O)NC1CCc2c(-c3ccc(C(F)(F)F)cc3)cncc21 (single isomer, unassigned; (+)) [Example 51, (+)-(R or S)—N-(4-(4-(Trifluoromethyl)phenyl)-6,7-dihydro-5H-cyclopenta[c]pyridin-7-yl)propionamide]
14 | 54.7 nM | 1380 nM | NC1CCc2c(-c3ccc(C(F)(F)F)c(F)c3)cncc21 (racemic) [Example 89, (rac)-4-(3-Fluoro-4-trifluoromethyl-phenyl)-6,7-dihydro-5H-[2]pyrindin-7-ylamine]
